Laboratory results from publication PMC9088311, “Cyclic Thiosulfonates for Thiol-Mediated Uptake: Cascade Exchangers, Transporters, Inhibitors” (JACS Au, 2022).

Experiment: Decarboxylation/stability of cyclic carbonate 11 in deuterated buffer
Type: physicochemical
Settings: for t50 (decarboxylation of 11 to 12): deuterated buffer/DMSO-d6 95:5, rt
Description: Figure 3 (A) Comparison of ring-opening rate constants (k^O) for the exchange reactions of 2, 3, and 11–18 with 10 (Table 1); (a) deuterated buffer/DMSO-d6 95:5, rt, t50 = <15 min, 84 min, 18 h, and ≫24 h at pD 7.9, 6.7, 5.4, and 4.7, respectively. (B) Dynamic covalent ring opening of CTO 3 and thiol 10 to give product 9. (C) Original kinetic data for the equilibration of 3 with 10 at pD 2.7 in deuterated phosphate buffer/DMSO-d6 9:1. Gold triangles: 3; purple circles: 9; filled diamonds: 10; empty diamonds: homo-disulfide of 10. (D) Dependence of K (filled circles) and rate constants (relative, k at 90% D2O as 1, k^O filled diamonds, k^C empty diamonds) for 3 with 10 at pD 2.7 (estimate) on solvent polarity. (E–G) Fluoride complexes of 1,2-dithiane 1,1-dioxide (E), 1,2-dithiane 1-oxide (F), and 1,2-dithiane (G), calculated with M06-2X/6-311++G** (green: F^–, yellow: S, red: O, gray: C, white: H). (H, I) Chloride complexes of 3 (H) and 1 (I, green: Cl^–, in parentheses: bond length for F^–). (J) Fragmentation of 11 with 10; (b) 10, DMSO-d6, rt.
The strained cyclic carbonate 11 was considered to accelerate CTO opening and further stabilize the opened form (entry 12). However, at pD 7.9, carbonate 11 decarboxylated within 15 min to CTO alkene 12. This degradation decelerated with decreasing pD to afford stable carbonate 11 for at least 1 day at pD 4.7 (Figure 3A). Ring opening of 11 was too fast even at pD 2.7, it proceeded to near completion with a >100× higher rate than 3. Decarboxylated alkene 12 reacted also very fast, the apparently lower rate is the consequence of more favorable ring closure back to 12 due to preorganization by the cis alkene (entry 13). The alternative Michael addition of thiol 10 to alkene 12 was not observed (Figure S12).

O=C1O[C@H]2CSS(=O)(=O)C[C@H]2O1 [Compound 11]
t50 (decarboxylation of 11 to 12) (pD 4.7): > 24 h
t50 (decarboxylation of 11 to 12) (pD 5.4): 18 h
t50 (decarboxylation of 11 to 12) (pD 6.7): 1.4 h
t50 (decarboxylation of 11 to 12) (pD 7.9): < 0.25 h
time stable (pD 4.7): at least 1 day
time of decarboxylation to CTO alkene 12 (pD 7.9): ≤ 15 min
